In patent US8729089B2 (Gilead Sciences, Inc., priority 2006, dated 2014) one finds EC50 and CC50 data, which are given here for seven compounds.

Each structure is given as a SMILES string. Where only a bound is given, the exact number is not on record here.

Series [1] relates to HCV replicon in human hepatoma Huh-7 cell line. In words: Anti-HCV replicon assay (EC50, luciferase). It is filed as cell-based. The procedure, abridged: (§1)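 Huh-7 cells carrying an HCV replicon (6000/well) exposed to 3-fold serial compound dilutions for 3 days at 37 °C, final DMSO 0.5% where used. EC50 read as replicon luciferase luminescence after cell lysis; CC50 from CellTiter-Glo luminescence after 10 min at room temperature.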

Series [2] concerns Huh-7 HCV replicon cells. In words: CC50 assay (CellTiter-Glo) in Huh-7 HCV replicon cells. It is filed as cell-based, human. Particulars: 3 days incubation, CellTiter-Glo readout. The method in brief:
as §1
On the technique in general: ATP-based viability assays read luminescence as a measure of living cells.

Assay in series [3]: as above
It is filed as cell-based, human. The settings on record: human, 3 days incubation, CellTiter-Glo readout. The method in brief: as §1

The mark [4] stands for this setting: Huh-7 HCV replicon cells, 3 days incubation, luciferase readout.

`CC(Nc1nc(NCC(F)(F)F)c2nc(-c3ccc(F)cc3)ccc2n1)c1ccc(S(N)(=O)=O)cc1` (centres unmarked) [Example 257, 4-{1-[6-(4-Fluoro-phenyl)-4-(2,2,2-trifluoro-ethylamino)-pyrido[3,2-d]pyrimidin-2-ylamino]-ethyl}-benzenesulfonamide]: in series [1] (setting [4]), the EC50 – broadly, the concentration giving half of the maximal effect – was less than 0.1 µM. Moreover, the cytotoxic concentration (CC50) (usually the concentration that lowers cell viability or growth by half) in series [2] fell in the range of 5 to 25 µM.
For `CC(Nc1nc(NCC(F)(F)F)c2nc(-c3ccc(F)cc3)ccc2n1)c1ccc(S(N)(=O)=O)cc1` (centres unmarked) [Example 250, 4-{1-[6-(4-Fluoro-phenyl)-4-(2,2,2-trifluoro-ethylamino)-pyrido[3,2-d]pyrimidin-2-ylamino]-ethyl}-benzenesulfonamide], in that order: less than 0.1 µM and less than 5 µM.
For the compound `COCCNc1nc(NCc2ccc(F)cc2)nc2ccc(-c3ccc(F)cc3)nc12` [Example 34, N2-(4-Fluoro-benzyl)-6-(4-fluoro-phenyl)-N4-(2-methoxy-ethyl)-pyrido[3,2-d]pyrimidine-2,4-diamine], the 50% effective concentration (EC50) in series [1] (Hepatitis C virus, Huh-7, 72 h) was less than 0.1 µM. Besides, the CC50 at 3 days in series [3] was less than 5 µM.
In the same order, the values of `CC(C)(N)C(=O)Nc1ccc(-c2ccc3nc(NCc4ccc(S(N)(=O)=O)cc4)nc(NCCS(C)(=O)=O)c3n2)cc1` [Example 154, 4-{[4-(2-Methanesulfonylethyl)-amino-6-(4-((2-amino-2-propyl)-carboxamido)-phenyl)-pyrido[3,2-d]pyrimidin-2-ylamino]-methyl}-benzenesulfonamide] are 0.1 to 0.25 µM and more than 25 µM.
Take `CCOc1nc(NCCc2ccccc2)nc2ccc(-c3ccc(F)cc3)nc12` [Example 118, [4-Ethoxy-6-(4-fluoro-phenyl)-pyrido[3,2-d]pyrimidin-2-yl]-phenethyl-amine]: the EC50 in series [1] (Hepatitis C virus, Huh-7, 72 h) is less than 0.1 µM. The same compound registered a CC50 at 3 days in series [3] of 5 to 25 µM.
Consider `NS(=O)(=O)c1ccc(CNc2nc(NCC(F)(F)F)c3nc(-c4ccc(=O)[nH]c4)ccc3n2)cc1` [Example 287, 4-{[6-(6-Oxo-1,6-dihydro-pyridin-3-yl)-4-(2,2,2-trifluoro-ethylamino)-pyrido[3,2-d]pyrimidin-2-ylamino]-methyl}-benzenesulfonamide], for which the EC50 in series [1] (Hepatitis C virus, Huh-7, 72 h) is less than 0.1 µM. This compound came in with a CC50 at 3 days in series [3] of more than 25 µM.
The compound `CN1CCN(c2ccc(CNc3nc(NCC(F)(F)F)c4nc(-c5ccc(F)cc5)ccc4n3)cc2)CC1` [Example 240, 6-(4-Fluoro-phenyl)-N2-[4-(4-methyl-piperazin-1-yl)-benzyl]-N4-(2,2,2-trifluoro-ethyl)-pyrido[3,2-d]pyrimidine-2,4-diamine] displayed a half-maximal effective concentration (EC50) in series [1] (Hepatitis C virus, Huh-7, 72 h) of less than 0.1 µM. The CC50 at 3 days in series [3] is less than 5 µM.
